Experimental findings from ChEMBL document CHEMBL1146759, “Chemo- and stereoselective synthesis of benzocycloheptene and 1-benzoxepin derivatives as alpha-sympathomimetic and anorexigenic agents” (Bioorg Med Chem Lett, 2004) are described below.

Data set [1] concerns Mus musculus. The experiment in a line: Protection against amphetamine toxicity in mice when administered percutaneously; no effect. The class given is functional, organism-based.
Data set [2] can be described thus: Acute toxicity when administered intraperitoneally in mice. Format: organism-based. Conditions: mouse, in vivo, ip; read-out: ALD50.
Data set [3] relates to Mus musculus. The experiment in a line: Effective dose for anorexigenic activity when administered to mice intraperitoneally; no effect. The class given is functional, organism-based.
Data set [4] in a line: Effect on change in blood pressure in mice. Format: functional.
Data set [5] in a line: Effect on change in blood pressure in […]; no effect. The class given is functional, organism-based.
The subject of data set [6] is Mus musculus. The experiment in a line: Protection against amphetamine toxicity in mice when administered percutaneously. The class given is functional.
The test system of data set [7] is Mus musculus. The experiment in a line: Effective dose for anorexigenic activity when administered to mice intraperitoneally. The conditions noted are these: ip. The class given is functional.

The source made the active and inactive calls. The rule behind the calls is not given here.

Consider `N[C@@H]1CCCc2cc(O)c(O)cc2[C@@H]1O`, for which the ED50 result in data set [1] was “inactive”. For the same compound, the LD50 in data set [2] worked out at 150 mg/kg.

`Cc1ccc2c(c1)[C@H](O)[C@H](N)CCO2`: in data set [3], the ED50 result is “inactive”. In data set [2], the LD50 amounted to 300 mg/kg. In data set [4], the “Change in blood pressure” value was determined as 10 mmHg.

On to `COc1cc2c(cc1OC)[C@H](O)[C@H](N)CCC2`, for which the ED50 entry in data set [1] was “inactive”. Further, the “Change in blood pressure” value in data set [5] is “inactive”. The LD50 in data set [2] worked out at 150 mg/kg.

As to `N[C@@H]1CCCc2ccccc2[C@@H]1O`, in data set [5], the “Change in blood pressure” value is “inactive”. This compound also yielded a median effective dose (ED50) in data set [6] of 73 mg/kg. Further, in data set [2], the LD50 worked out at 150 mg/kg.

In the case of `N[C@H]1CCCc2ccccc2[C@@H]1O`, the ED50 result in data set [1] is “inactive”. Also, in data set [5], the “Change in blood pressure” value is “inactive”. For the same compound, the LD50 in data set [2] is 150 mg/kg.

For the compound `Cc1cc2c(cc1C)[C@H](O)[C@H](N)CCC2`, the ED50 result in data set [1] was “inactive”. Further, the “Change in blood pressure” value in data set [5] is “inactive”. In data set [2], the LD50 worked out at 150 mg/kg.

As for `COc1ccc2c(c1)[C@H](O)[C@@H](N)CCO2`, the ED50 entry in data set [3] was “inactive”. Moreover, the LD50 in data set [2] was found to be 150 mg/kg. For the same compound, the “Change in blood pressure” value in data set [4] amounted to 40 mmHg.

Consider `Cc1ccc2c(c1)[C@H](O)[C@@H](N)CCO2`, for which the ED50 result in data set [3] is “inactive”. Moreover, the LD50 in data set [2] was 150 mg/kg. Moreover, the “Change in blood pressure” value in data set [4] came to 38 mmHg.

Compound `N[C@H]1CCOc2ccccc2[C@@H]1O` displayed a 50% effective dose (ED50) in data set [7] of 55 mg/kg. In data set [2], the LD50 turned out to be 500 mg/kg. In addition, the “Change in blood pressure” value in data set [4] came out at 32 mmHg.

Take `N[C@@H]1CCOc2ccccc2[C@@H]1O`: in data set [7], the ED50 stood at 75 mg/kg. Moreover, the LD50 in data set [2] was determined as 800 mg/kg. The “Change in blood pressure” value in data set [4] is 44 mmHg.

In the case of `COc1ccc2c(c1)[C@H](O)[C@H](N)CCO2`, the ED50 entry in data set [3] is “inactive”. The LD50 in data set [2] was 150 mg/kg. Moreover, in data set [4], the “Change in blood pressure” value is on record as 20 mmHg.
